Values after ≈ are worked out from the molar mass of the structure shown. Values joined by “and” are separate entries in the source; they are usually repeats but may differ in a detail not shown here. Equal entries are not always repeated. Where two headings read alike, the source gives them in different places.

What is called IC50 is the concentration that inhibits the measured activity by half. By solubility is commonly meant the concentration that dissolves in the medium under given conditions. By Ki is commonly meant the equilibrium dissociation constant of an inhibitor or competing ligand from its target. A high value points to weaker binding.

For one data set, the target named is SARS-CoV-2 PLpro (Severe acute respiratory syndrome coronavirus 2, UniProt P0DTD1). As to the kind of experiment: SARS-CoV-2 PLpro inhibition assay (enzymatic, LKGG-AMC substrate). Format: biochemical. The settings on record: for IC50: enzymatic assay; for Ki: Hanes-Woolf plot; for Ki / inhibition mechanism: kinetic characterization.
Data set [1] in a line: in vitro. The note with it: chlorocebus sabaeus.
The nature of data set [2]: in vitro. The settings on record: human.
For data set [3] the following is noted: mouse, microsomes, 0.5 h; cited from earlier work.
For data set [4] the following is noted: rat, microsomes, 0.5 h; cited from earlier work.
For the next data set, the system named is PLpro. The settings on record: cited from earlier work; for IC50: PLpro.

In the case of `CN1CCC(Nc2ccnc3ccc(-c4ccc(C(=O)NCCO)nc4)nc23)CC1` [Compound 82, O=C(NCCO)C1=NC=C(C2=NC3=C(N=CC=C3NC4CCN(C)CC4)C=C2)C=C1], on SARS-CoV-2 PLpro, the 50% inhibitory concentration (IC50) was 79.8 ± 20.4 µM. Also, the CC50 in “in vitro [1]” and in “in vitro [2]” was above 50 µM throughout. In the data set “physchem”, the concentration in solution (solubility) was 200 µM (≈ 81.3 µg/mL).

Regarding `CS(=O)(=O)c1cccc(-c2ccc3nccc(N4CCNCC4)c3n2)c1` [Compound 83, O=S(C1=CC=CC(C2=NC3=C(N=CC=C3N4CCNCC4)C=C2)=C1)(C)=O], half-maximal inhibition against SARS-CoV-2 PLpro (IC50) was put at 54.8 µM. The CC50 was 43.6 µM in the data set “in vitro [1]” and above 50 µM in the data set “in vitro [2]”. The solubility in “physchem” came out at 180 µM (≈ 66.3 µg/mL). Further, the “Microsomal stability, % remaining after 30 min” value in data set [3] is listed as 60.24%; in data set [4], 50.41%.

Regarding `Cc1ccc(N)cc1C(=O)N[C@H](C)c1cccc2ccccc12` [GRL0617], in the data set with PLpro, the IC50 was […].

Compound `CNC(=O)c1ccc(-c2ccc3nccc(NC4CCNCC4)c3n2)cn1` [Compound 84, O=C(NC)C1=NC=C(C2=NC3=C(N=CC=C3NC4CCNCC4)C=C2)C=C1] gave an IC50 against SARS-CoV-2 PLpro of 39.5 ± 4.62 µM. For the same compound, the CC50 is 47.3 µM in the data set “in vitro [1]” and above 50 µM in the data set “in vitro [2]”. This compound yielded a solubility in “physchem” of 175 µM (≈ 63.4 µg/mL).

At SARS-CoV-2 PLpro, `CCN(CCNc1nc2ccccc2[nH]1)Cc1cc(Cl)ccc1O` [Compound 2, CCN(CCNc1nc2ccccc2[nH]1)Cc1cc(ccc1O)Cl] came in with a 50% inhibitory concentration (IC50) of 102 µM.

Regarding `Cn1ccc(-c2ccc3nccc(N[C@@H]4CCNC4)c3n2)cc1=O` [Compound 1, Cn1ccc(cc1=O)-c1ccc2nccc(NC3CC[NH2+]C3)c2n1], at SARS-CoV-2 PLpro, affinity was put at a Ki of 22.4 ± 6.7 µM, the IC50 was determined as 73.6 µM and the inhibition mechanism entry is listed as “competitive”. In addition, at SARS-CoV-2 PLpro (with or without 0.01% Triton), the “inhibition test in absence and presence of Triton (aggregation check)” value is listed as “no significant differences”. In “in vitro [1]”, this compound registered a CC50 of 23.8 µM. This compound also came in with a CC50 in “in vitro [2]” above 50 µM. This compound displayed a solubility in “physchem” of 195 µM (≈ 62.7 µg/mL).

At SARS-CoV-2 PLpro, `O=C(NCc1cccc(F)c1)c1ncc2ccccn12` [Compound 6, Fc1cccc(CNC(=O)c2ncc3ccccn23)c1] came in with an IC50 of 194 µM.

In the case of `CCn1ccc(-c2cc(-c3cnn(C)c3)cc([C@@H](C)NC(=O)c3cc(OCCN(C)C)ccc3C)c2)n1` [Jun12682], the “protease, deubiquitinase, and deISGylase activity of PLpro” value in the data set with PLpro was “inhibited”.

In the case of `S=C(SSC(=S)N1CCOCC1)N1CCOCC1` [RI173], the IC50 in the data set on PLpro is 0.2 µM.

Consider `CCN(CC)Cc1cc(Nc2nc3ccccc3[nH]2)ccc1O` [Compound 3, CCN(CC)Cc1cc(ccc1O)Nc1nc2ccccc2[nH]1], for which, at SARS-CoV-2 PLpro, the IC50 was determined as 127 µM.

Consider `COc1ccc(-c2ccc3nccc(N[C@@H]4CCNC4)c3n2)cn1` [Compound 85, COC1=NC=C(C2=NC3=C(N=CC=C3N[C@@H]4CCNC4)C=C2)C=C1], for which the “fold improvement in PLpro activity” value at SARS-CoV-2 PLpro (85 compared with 1) is on record as 5 fold. For the same compound, at SARS-CoV-2 PLpro, the Ki was 22.9 µM and 20.1 µM; the IC50 came out at 15.1 ± 2.19 µM; the inhibition mechanism result is “competitive”. In addition, the “inhibition test in absence and presence of CHAPS detergent (aggregation check)” value on SARS-CoV-2 PLpro (with and without 1 mM CHAPS) was “No significant difference”. This compound also returned a CC50 in “in vitro [1]” of 7.47 µM. The compound also came in with a CC50 in “in vitro [2]” of 26.3 µM. The solubility in “physchem” is 190 µM (≈ 61.1 µg/mL). The “Microsomal stability, % remaining after 30 min” value in data set [3] is listed as 66.61%. The “Microsomal stability, % remaining after 30 min” value in data set [4] is 62.68%.

With `NCCNc1nccc2[nH]c(-c3ccc(F)c(F)c3)nc12` [Compound 4, NCCNc1nccc2[nH]c(nc12)-c1ccc(c(c1)F)F], the IC50 at SARS-CoV-2 PLpro worked out at 130 µM.

With `O=C1CN(C(=O)CNC(=O)c2ccc3c(c2)B(O)OC3)CCN1` [Compound 5, O[B]1OCc2ccc(cc21)C(=O)NCC(=O)N1CCNC(=O)C1], 137 µM corresponded to half-maximal inhibition on SARS-CoV-2 PLpro (IC50).
